Measured values as given in ChEMBL document CHEMBL4828776, “Acremopeptaibols A-F, 16-Residue Peptaibols from the Sponge-Derived Acremonium sp. IMB18-086 Cultivated with Heat-Killed Pseudomonas aeruginosa” (J Nat Prod, 2021).
≈ marks a conversion by molar mass, not a printed value. Non-standard residues stand in square brackets, D forms with d. Residues, ends and D or L forms follow the SMILES beside them. Hyp = O=C(O)[C@@H]1C[C@@H](O)CN1; Phe(ol) = N[C@H](CO)Cc1ccccc1; Aib = CC(C)(N)C(=O)O

How the values were obtained:
[1] = tested on: Staphylococcus epidermidis; test: Antibacterial activity against Staphylococcus epidermidis ATCC 12228 assessed as inhibition of bacterial growth incubated for 16 hrs by microdilution method; type: functional
Pseudomonas aeruginosa = test: Antibacterial activity against Pseudomonas aeruginosa ATCC 27853 assessed as inhibition of bacterial growth incubated for 16 hrs by microdilution method; type: functional
Staphylococcus aureus [2] = test: Antibacterial activity against Staphylococcus aureus ATCC 25923 assessed as inhibition of bacterial growth incubated for 16 hrs by microdilution method; type: functional
Enterococcus faecalis = test: Antibacterial activity against vancomycin-resistant Enterococcus faecalis 21-07 assessed as inhibition of bacterial growth incubated for 16 hrs by microdilution method; type: functional
Staphylococcus aureus [3] = test: Antibacterial activity against methicillin-resistant Staphylococcus aureus ATCC 33591 assessed as inhibition of bacterial growth incubated for 16 hrs by microdilution method; type: functional
HepG2 = test: Cytotoxicity against human HepG2 cells assessed as reduction in cell viability incubated for 48 hrs by CCK8 assay; type: functional, cell-based; details: HepG2, 48 h
Escherichia coli = test: Antibacterial activity against Escherichia coli ATCC 25922 assessed as inhibition of bacterial growth incubated for 16 hrs by microdilution method; type: functional
Candida albicans = test: Antifungal activity against Candida albicans ATCC 10231 assessed as inhibition of fungal growth incubated for 16 hrs by microdilution method; type: functional
Staphylococcus aureus [4] = test: Antibacterial activity against Staphylococcus aureus ATCC 29213 assessed as inhibition of bacterial growth incubated for 16 hrs by microdilution method; type: functional
Bacillus subtilis = test: Antibacterial activity against Bacillus subtilis ATCC 6633 assessed as inhibition of bacterial growth incubated for 16 hrs by microdilution method; type: functional
A549 = test: Cytotoxicity against human A549 cells assessed as reduction in cell viability incubated for 48 hrs by CCK8 assay; type: functional, cell-based; details: A549, 48 h

Compound	MIC [1] [µg/mL]	MIC (Pseudomonas aeruginosa) [µg/mL]	MIC (Staphylococcus aureus [2]) [µg/mL]	MIC (Enterococcus faecalis) [µg/mL]	MIC (Staphylococcus aureus [3]) [µg/mL]	IC50 (HepG2) [nM]	MIC (Escherichia coli) [µg/mL]	MIC (Candida albicans) [µg/mL]	MIC (Staphylococcus aureus [4]) [µg/mL]	MIC (Bacillus subtilis) [µg/mL]	IC50 (A549) [nM]
CC[C@@](C)(NC(=O)CNC(=O)[C@@](C)(CC)NC(=O)[C@H](CCC(N)=O)NC(=O)C(C)(C)NC(=O)[C@H](Cc1c[nH]c2ccccc12)NC(C)=O)C(=O)N[C@@H](C)C(=O)NC(C)(C)C(=O)NC(C)(C)C(=O)NCC(=O)N[C@@H](CCC(N)=O)C(=O)N[C@](C)(CC)C(=O)N1C[C@H](O)C[C@H]1C(=O)NC(C)(C)C(=O)N1CCC[C@H]1C(=O)N[C@H](CO)Cc1ccccc1	> 128	> 128	64 (≈ 38.3 µM)	> 128	64 (≈ 38.3 µM)	≥ 50000	> 128	16 (≈ 9.59 µM)	32 (≈ 19.2 µM)	16 (≈ 9.59 µM)	≥ 50000
COLISTIN	16	1	64	> 128	128	–	1	–	128	16	–
NYSTATIN	–	–	–	–	–	–	–	> 128	–	–	–
CC(=O)N[C@@H](Cc1c[nH]c2ccccc12)C(=O)NC(C)(C)C(=O)N[C@@H](CCC(N)=O)C(=O)NC(C)(C)C(=O)NCC(=O)NC(C)(C)C(=O)N[C@@H](C)C(=O)NC(C)(C)C(=O)NC(C)(C)C(=O)NCC(=O)N[C@@H](CCC(N)=O)C(=O)NC(C)(C)C(=O)N1C[C@H](O)C[C@H]1C(=O)NC(C)(C)C(=O)N1CCC[C@H]1C(=O)N[C@H](CO)Cc1ccccc1 (Ac-W[Aib]Q[Aib]G[Aib]A[Aib][Aib]GQ[Aib][Hyp][Aib]P[Phe(ol)])	> 128	> 128	> 128	> 128	> 128	≥ 50000	> 128	> 128	> 128	> 128	≥ 50000
CC[C@@](C)(NC(=O)[C@H](CCC(N)=O)NC(=O)C(C)(C)NC(=O)[C@H](Cc1c[nH]c2ccccc12)NC(C)=O)C(=O)NCC(=O)NC(C)(C)C(=O)N[C@@H](C)C(=O)NC(C)(C)C(=O)NC(C)(C)C(=O)NCC(=O)N[C@@H](CCC(N)=O)C(=O)NC(C)(C)C(=O)N1C[C@H](O)C[C@H]1C(=O)NC(C)(C)C(=O)N1CCC[C@H]1C(=O)N[C@H](CO)Cc1ccccc1	> 128	> 128	> 128	> 128	> 128	≥ 50000	> 128	64 (≈ 39 µM)	> 128	64 (≈ 39 µM)	≥ 50000
C/C(=C\Cc1c(O)c(Cl)c(C)c(C=O)c1O)[C@H](O)C[C@@]1(C)[C@H](C)CCC(=O)[C@@H]1C	> 128	> 128	128 (≈ 303 µM)	> 128	> 128	900	> 128	> 128	> 128	> 128	900
C/C(=C\Cc1c(O)c(Cl)c(C)c(C=O)c1O)CC/C=C(\C)[C@@H]1CC(=O)C(C)(C)O1 [ASCOFURANONE]	4 (≈ 9.5 µM)	> 128	4 (≈ 9.5 µM)	> 128	32 (≈ 76 µM)	900	> 128	32 (≈ 76 µM)	16 (≈ 38 µM)	16 (≈ 38 µM)	900
CC[C@@](C)(NC(=O)CNC(=O)[C@@](C)(CC)NC(=O)[C@H](CCC(N)=O)NC(=O)C(C)(C)NC(=O)[C@H](Cc1c[nH]c2ccccc12)NC(C)=O)C(=O)N[C@@H](C)C(=O)NC(C)(C)C(=O)NC(C)(C)C(=O)NCC(=O)N[C@@H](CCC(N)=O)C(=O)NC(C)(C)C(=O)N1C[C@H](O)C[C@@H]1C(=O)NC(C)(C)C(=O)N1CCC[C@H]1C(=O)N[C@H](CO)Cc1ccccc1	> 128	> 128	> 128	> 128	> 128	≥ 50000	> 128	64 (≈ 38.7 µM)	> 128	> 128	≥ 50000
CC(/C=C/[C@@]1(C)[C@H](C)CCC(=O)[C@@H]1C)=C\Cc1c(O)c(Cl)c(C)c(C=O)c1O [ASCOCHLORIN]	0.25 (≈ 0.617 µM)	> 128	1 (≈ 2.47 µM)	> 128	> 128	900	> 128	4 (≈ 9.88 µM)	16 (≈ 39.5 µM)	2 (≈ 4.94 µM)	900
CC[C@@](C)(NC(=O)[C@H](CCC(N)=O)NC(=O)CNC(=O)C(C)(C)NC(=O)C(C)(C)NC(=O)[C@H](C)NC(=O)C(C)(C)NC(=O)CNC(=O)C(C)(C)NC(=O)[C@H](CCC(N)=O)NC(=O)C(C)(C)NC(=O)[C@H](Cc1c[nH]c2ccccc12)NC(C)=O)C(=O)N1C[C@H](O)C[C@H]1C(=O)NC(C)(C)C(=O)N1CCC[C@H]1C(=O)N[C@H](CO)Cc1ccccc1	> 128	> 128	128 (≈ 78 µM)	> 128	128 (≈ 78 µM)	≥ 50000	> 128	64 (≈ 39 µM)	128 (≈ 78 µM)	32 (≈ 19.5 µM)	≥ 50000
CC(/C=C/[C@@]1(C)[C@H](C)CC[C@@H](O)[C@@H]1C)=C\Cc1c(O)c(Cl)c(C)c(C=O)c1O	16 (≈ 39.3 µM)	> 128	16 (≈ 39.3 µM)	> 128	> 128	900	> 128	> 128	> 128	32 (≈ 78.6 µM)	900
CN[C@H](CC(C)C)C(=O)N[C@H]1C(=O)N[C@@H](CC(N)=O)C(=O)N[C@H]2C(=O)N[C@H]3C(=O)N[C@H](C(=O)N[C@H](C(=O)O)c4cc(O)cc(O)c4-c4cc3ccc4O)[C@H](O)c3ccc(c(Cl)c3)Oc3cc2cc(c3O[C@@H]2O[C@H](CO)[C@@H](O)[C@H](O)[C@H]2O[C@H]2C[C@](C)(N)[C@H](O)[C@H](C)O2)Oc2ccc(cc2Cl)[C@H]1O [VANCOMYCIN]	–	> 128	–	16 (≈ 11 µM)	–	–	> 128	–	–	0.125 (≈ 0.0863 µM)	–
CC[C@@](C)(NC(=O)[C@H](CCC(N)=O)NC(=O)C(C)(C)NC(=O)[C@H](Cc1c[nH]c2ccccc12)NC(C)=O)C(=O)NCC(=O)NC(C)(C)C(=O)N[C@@H](C)C(=O)NC(C)(C)C(=O)NC(C)(C)C(=O)NCC(=O)N[C@@H](CCC(N)=O)C(=O)N[C@](C)(CC)C(=O)N1C[C@H](O)C[C@H]1C(=O)NC(C)(C)C(=O)N1CCC[C@H]1C(=O)N[C@H](CO)Cc1ccccc1	> 128	> 128	64 (≈ 38.7 µM)	> 128	64 (≈ 38.7 µM)	≥ 50000	> 128	32 (≈ 19.3 µM)	64 (≈ 38.7 µM)	16 (≈ 9.67 µM)	≥ 50000
